In patent US8076366B2, “Forms of bendamustine free base” (Cephalon, Inc., priority 2009, dated 2011):

Test: Variable temperature X-ray powder diffraction (VT-XRPD) of Form 3: solid-state thermal stability
Type: physicochemical
Experimental: Variable temperature studies were performed with an Anton Paar TTK450 temperature chamber under computer control through an Anton Paar TCU100 temperature control unit. Typically, the measurements were done with a nitrogen flow through the camera. Two measurement schemes were used, restricted and continuous. In the restricted mode, measurements were made only after the TK450 chamber reached the requested temperature. In the continuous mode, the sample was heated at 10° C./minute and fast scans were measured as the temperature changed. After the pre-selected temperature was reached, the sample was cooled at 35° C./minute. To monitor for changes during the cooling, fast scans were again measured. At 25° C., a slow scan was measured. The temperatures chosen were based on DSC results. For the diffractometer set-up a 10 mm beam mask, 0.04 radian Soller slits and fixed (¼°) divergence and anti-scatter (⅛°) slits were inserted on the incident beam side. A fixed 0.10 mm receiving slit, 0.04 radian Soller slits and a 0.02 mm Nickel filter were inserted on the diffracted beam side. […] With the nitrogen gas supply turned off, the camera returned to ambient conditions. The humidity in the ambient state varies with the humidity in the laboratory, typically 30 to 40%, and with the temperature in the camera. As the temperature is raised, the relative humidity will drop. […]

Compound: Cn1c(CCCC(=O)O)nc2cc(N(CCCl)CCCl)ccc21 [Form 3, 4-{5-[Bis(2-chloroethyl)amino]-1-methyl-2-benzimidazolyl}butyric acid]
- temperature after which the sample converts to amorphous material: > 133 °C
- solid-solid transformations on heating (temperature range of 25° C. to 50° C.): No significant, solid-solid transformations
